Reference: patent US20170273985A1, “TRICYCLIC DERIVATIVE” (Sunovion Pharmaceuticals Inc., priority 2014, published 2017)
pIC50: −log10 of the molar value.

Columns and labels:
Format in all cases: biochemical
[1] = target: PDE1B (Homo sapiens, UniProt Q01064); test: In vitro HTRF PDE1 inhibition assay (PDE1B)
How it was run: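 PDE1A3, 1B or 1C with calmodulin hydrolysed 100 nM cGMP in Tris buffer pH 7.4 (1 mM CaCl2, 10 mM MgCl2, 0.1% BSA, 1% DMSO) for 45 min at 37 °C. Remaining cGMP was measured by HTRF competition (d2-cGMP, anti-cGMP cryptate; 665/615 nm). IC50 is reported in bins: <1, 1-10 and 10-100 μM.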

[2] = target: PDE1C (Homo sapiens, UniProt Q14123); test: In vitro HTRF PDE1 inhibition assay (PDE1C)
Text: (§1) An exemplary procedure for the in vitro Homogenous Time Resolved Fluorescence assay, which can be used to determine the inhibitory action of compounds of the invention toward PDE1 or its isoforms, follows. The HTRF PDE1 assay utilized the HTRF (Homogenous Time Resolved Fluorescence) technology, which is based on the competition between unlabeled cyclic nucleotide and cyclic nucleotide labeled with XL665 for the binding to cyclic nucleotide-specific antibody labeled with cryptate. The HTRF signal is thus inversely proportional to the concentration of cyclic nucleotide being measured. Since phosphodiesterases break down cyclic nucleotides the HTRF signal was used to determine PDE activity. The Cisbio cGMP HTRF assay kit (Cat no: 62GM2PEC) was utilized. Cyclic GMP was diluted to 200 nM in HTRF assay buffer (1 mM CaCl2, 10 mM MgCl2, 10 mM Tris-HCl, 0.1% BSA, pH 7.4). 10 μl of compound or DMSO was diluted in 200 nM cyclic GMP solution and added to wells of a 96 well white plate to give 100 nM cyclic GMP in 1% DMSO final concentration. PDE (1A3, 1B or IC) was diluted to 2× working concentration in HTRF assay buffer with 2 μg/ml calmodulin, and 10 μl was added to initiate the reaction. The plate was then incubated for 45 minutes at 37° C. d2-Labelled cyclic GMP and anti-cGMP cryptate were diluted in 50 mM phosphate buffer, 0.8 M KF, 1% Triton X100, 0.2% BSA, pH 7.0. Following incubation 10 μl d2-cGMP, then 10 μl anti cGMP cryptate were added to each well and the plate was incubated for 45 minutes at room temperature. The plate was then read on Perkin Elmer Victor at 2 different FRET readings ex/emm 340 nm/665 nm and 340 nm/615 nm. Compounds having an IC50 of <1 μM, are denoted as +++. Compounds having an IC50 of 1−10 μM, are denoted as ++. Compounds having an IC50 of 10-100 μM, are denoted as +.

[3] = target: PDE1A3 (Homo sapiens, UniProt P54750); test: In vitro HTRF PDE1 inhibition assay (PDE1A3)
Text: as §1

| pIC50 ([1]; Table 22) | pIC50 ([2]; Table 24) | pIC50 ([3]; Table 23) | pIC50 ([1]; Table 25) | pIC50 ([2]; Table 27) | pIC50 ([3]; Table 26) | Compound |
| --- | --- | --- | --- | --- | --- | --- |
| – | – | – | > 6.00 | > 6.00 | > 6.00 | O=c1c2cnc(C3CCOCC3)n2nc2n1CCN2Cc1ccccc1F [Example 156] |
| – | – | – | > 6.00 | > 6.00 | > 6.00 | CO[C@H]1CC[C@H](CN2CCCn3c2nn2c(C4CCOCC4)ncc2c3=O)CC1 [Example 191] |
| > 6.00 | 4.00 to 5.00 | 5.00 to 6.00 | – | – | – | O=c1c2cnc(C3CCOCC3)n2nc2n1CCN2CCCC(F)(F)F [Example 56] |
| – | – | – | > 6.00 | > 6.00 | > 6.00 | O=c1c2cnc(C3CCOCC3)n2nc2n1CCN2Cc1ccc(F)cc1 [Example 154] |
| – | – | – | > 6.00 | > 6.00 | > 6.00 | CC(C)CCN1CCn2c1nn1c(C3CCOCC3)ncc1c2=O [Example 172] |
| – | – | – | > 6.00 | > 6.00 | > 6.00 | CC(C)c1ncc2c(=O)n3c(nn12)N(CC1CCOCC1)CC1(CC1)C3 [Example 200] |
| > 6.00 | 5.00 to 6.00 | > 6.00 | – | – | – | O=c1c2cnc(C3CCOCC3)n2nc2n1CCCN2Cc1ccccc1 [Example 59] |
| – | – | – | > 6.00 | > 6.00 | > 6.00 | O=c1c2cnc(C3CCOCC3)n2nc2n1CCN2CC1CCC(F)(F)CC1 [Example 171] |
| – | – | – | > 6.00 | > 6.00 | > 6.00 | O=c1c2cnc(C3CCOCC3)n2nc2n1CCN2Cc1cccc(F)c1 [Example 155] |
| – | – | – | > 6.00 | > 6.00 | > 6.00 | O=c1c2cnc(C3CCOCC3)n2nc2n1CCN2CCC1(C(F)(F)F)CC1 [Example 160] |
| > 6.00 | 5.00 to 6.00 | > 6.00 | – | – | – | CC(C)c1ncc2c(=O)n3c(nn12)N(CC1CCOCC1)CC3 [Example 1, 8-Isopropyl-1-((tetrahydro-2H-pyran-4-yl)methyl)-2,3-dihydrodiimidazo[2,1-c:1′,5′-f][1,2,4]triazin-5(1H)-one] |
| – | – | – | > 6.00 | > 6.00 | > 6.00 | CCO[C@H]1CC[C@H](CN2CCCn3c2nn2c(C4CCOCC4)ncc2c3=O)CC1 [Example 193] |
| – | – | – | > 6.00 | > 6.00 | > 6.00 | O=c1c2cnc(C3CCOCC3)n2nc2n1CCCN2CC1(C(F)(F)F)CC1 [Example 187] |

Second part, the compound before the results:

| Compound | pIC50 ([1]; Table 22) | pIC50 ([2]; Table 24) | pIC50 ([3]; Table 23) | pIC50 ([1]; Table 25) | pIC50 ([2]; Table 27) | pIC50 ([3]; Table 26) |
| --- | --- | --- | --- | --- | --- | --- |
| CC(C)c1ncc2c(=O)n3c(nn12)N(CCCc1ccccn1)CCC3 [Example 120, 9-Isopropyl-1-[3-(2-pyridinyl)propyl]-1,2,3,4-tetrahydro-6H-imidazo[5,1-f]pyrimido[2,1-c][1,2,4]triazin-6-one] | > 6.00 | > 6.00 | > 6.00 | – | – | – |
| CC1CN(CC2CCOCC2)c2nn3c(C(C)C)ncc3c(=O)n2C1 (stereo not drawn) [Example 64] | > 6.00 | > 6.00 | > 6.00 | – | – | – |
| CC(C)n1ncc2c(=O)n3c(nc21)N(C)C(c1ccc(Cl)cc1)CC3 (stereo not drawn) [Example 81] | > 6.00 | 5.00 to 6.00 | > 6.00 | – | – | – |
| CC(C)c1ncc2c(=O)n3c(nn12)N(CC1CCOCC1)C[C@@H](C)C3 [Example 232] | – | – | – | > 6.00 | > 6.00 | > 6.00 |
| CCN1c2nn3c(C4CCOCC4)ncc3c(=O)n2CC[C@@H]1c1ccc(Cl)cc1 [Example 70] | > 6.00 | 5.00 to 6.00 | > 6.00 | – | – | – |
| CC(C)c1ncc2c(=O)n3c(nn12)N(CC1CCOCC1)C[C@H](C)C3 [Example 233] | – | – | – | > 6.00 | > 6.00 | > 6.00 |
| CC(C)n1ncc2c(=O)n3c(nc21)N(Cc1ccc(C#N)cc1)CCC3 [Example 79] | > 6.00 | > 6.00 | > 6.00 | – | – | – |
| CC(C)n1ncc2c(=O)n3c(nc21)N(CC1CCOCC1)CCC3 [Example 78] | > 6.00 | 5.00 to 6.00 | > 6.00 | – | – | – |
| CC(C)c1ncc2c(=O)n3c(nn12)N(CCCc1ccccn1)CC3 [Example 11] | > 6.00 | 5.00 to 6.00 | > 6.00 | – | – | – |
| CC(C)c1ncc2c(=O)n3c(nn12)N(CCCCCCO)CCC3 [Example 106] | > 6.00 | > 6.00 | > 6.00 | – | – | – |
| CC(C)n1ncc2c(=O)n3c(nc21)N(Cc1ccc(-c2ccccn2)cc1)CC3 [Example 75] | > 6.00 | > 6.00 | > 6.00 | – | – | – |
| O=c1c2cnc(C3CCCC3)n2nc2n1CCCC2 [Example 137] | > 6.00 | 5.00 to 6.00 | 5.00 to 6.00 | – | – | – |
